This passage reports inhibition results from patent US20190127381A1, “SUBSTITUTED FUSED PYRIMIDINONE COMPOUNDS” (TORRENT PHARMACEUTICALS LIMITED, priority 2016, published 2019).

Assay [1] concerns the target T1, purified recombinant human PI3K enzyme γ (Homo sapiens, UniProt P48736).
T1 construct: purchased Invitrogen, USA
Description: Inhibition of PI3-Kinase enzymatic activity (HTRF enzyme assay), γ. The assay is classed as biochemical. Particulars: 1 μM compound; PI3K γ 100 ng/well; PIP2 10 μM; ATP 50 μM; read-out: Percentage inhibition of PI3K activity, γ. The method, then: (§1) Inhibition of PI3-Kinase enzymatic activity was determined using a homogeneous time-resolved fluorescence (HTRF) kit from Eurofins. 1 μM of Compounds of present invention were premixed with DMSO. The experiment was initiated by mixing 1.0% DMSO as vehicle/compounds with purified recombinant human PI3K enzyme {δ (50 ng/well); γ (100 ng/well)} (Invitrogen, USA) and substrate (PIP2, 10 μM) in the wells and incubation for 15 min at room temperature. There after ATP was added (δ at 200 μM, and γ at 50 μM) in to the wells containing reaction mixture, followed by re-incubation for 30 minutes at room temperature. Reaction was terminated by addition of a stopping solution and was further incubated for 4 hours at room temperature before reading using Envision multimode reader (Perkin Elmer). Percentage inhibition of PI3K activity was calculated by determining ratio of specific europium 665 nm energy transfer signal to reference 615 nm signals.

Assay [2] addresses T2, purified recombinant human PI3K enzyme δ (Homo sapiens, UniProt O00329).
T2 construct: purchased Invitrogen, USA
Description: Inhibition of PI3-Kinase enzymatic activity (HTRF enzyme assay), δ. The assay is classed as biochemical. Particulars: 1 μM compound; PI3K δ 50 ng/well; PIP2 10 μM; ATP 200 μM; read-out: Percentage inhibition of PI3K activity, δ. The method, then:
as §1
A general note: In TR-FRET formats the signal depends on donor and acceptor labels being close together.

T2 sequence (O00329 whole entry): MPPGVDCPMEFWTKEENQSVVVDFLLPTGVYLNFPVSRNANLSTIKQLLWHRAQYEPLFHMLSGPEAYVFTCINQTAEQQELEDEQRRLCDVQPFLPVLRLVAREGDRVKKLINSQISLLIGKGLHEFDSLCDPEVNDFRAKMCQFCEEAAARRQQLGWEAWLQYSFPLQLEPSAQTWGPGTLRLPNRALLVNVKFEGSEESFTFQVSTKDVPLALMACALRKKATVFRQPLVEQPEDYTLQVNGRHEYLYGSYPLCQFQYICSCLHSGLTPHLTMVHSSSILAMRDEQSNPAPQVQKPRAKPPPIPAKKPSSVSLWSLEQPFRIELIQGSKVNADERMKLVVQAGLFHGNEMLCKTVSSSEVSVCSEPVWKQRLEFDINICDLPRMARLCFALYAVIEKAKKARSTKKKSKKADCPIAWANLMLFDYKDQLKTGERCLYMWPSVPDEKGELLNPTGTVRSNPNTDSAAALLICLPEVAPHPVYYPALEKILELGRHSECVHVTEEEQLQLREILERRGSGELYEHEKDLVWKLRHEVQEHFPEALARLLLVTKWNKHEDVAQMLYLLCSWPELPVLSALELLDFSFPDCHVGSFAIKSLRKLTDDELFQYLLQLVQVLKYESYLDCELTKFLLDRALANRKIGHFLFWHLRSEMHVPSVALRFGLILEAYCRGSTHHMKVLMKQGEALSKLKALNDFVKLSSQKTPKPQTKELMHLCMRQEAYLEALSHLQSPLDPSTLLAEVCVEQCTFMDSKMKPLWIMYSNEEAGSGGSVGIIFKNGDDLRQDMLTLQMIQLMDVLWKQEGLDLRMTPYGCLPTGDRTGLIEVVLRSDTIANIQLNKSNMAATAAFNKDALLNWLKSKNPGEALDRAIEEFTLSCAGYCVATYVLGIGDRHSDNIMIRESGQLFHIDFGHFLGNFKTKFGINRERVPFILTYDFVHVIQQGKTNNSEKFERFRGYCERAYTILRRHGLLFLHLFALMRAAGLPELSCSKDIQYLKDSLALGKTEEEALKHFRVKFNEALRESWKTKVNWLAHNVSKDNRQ
T2 sequence (P27986 whole entry partner): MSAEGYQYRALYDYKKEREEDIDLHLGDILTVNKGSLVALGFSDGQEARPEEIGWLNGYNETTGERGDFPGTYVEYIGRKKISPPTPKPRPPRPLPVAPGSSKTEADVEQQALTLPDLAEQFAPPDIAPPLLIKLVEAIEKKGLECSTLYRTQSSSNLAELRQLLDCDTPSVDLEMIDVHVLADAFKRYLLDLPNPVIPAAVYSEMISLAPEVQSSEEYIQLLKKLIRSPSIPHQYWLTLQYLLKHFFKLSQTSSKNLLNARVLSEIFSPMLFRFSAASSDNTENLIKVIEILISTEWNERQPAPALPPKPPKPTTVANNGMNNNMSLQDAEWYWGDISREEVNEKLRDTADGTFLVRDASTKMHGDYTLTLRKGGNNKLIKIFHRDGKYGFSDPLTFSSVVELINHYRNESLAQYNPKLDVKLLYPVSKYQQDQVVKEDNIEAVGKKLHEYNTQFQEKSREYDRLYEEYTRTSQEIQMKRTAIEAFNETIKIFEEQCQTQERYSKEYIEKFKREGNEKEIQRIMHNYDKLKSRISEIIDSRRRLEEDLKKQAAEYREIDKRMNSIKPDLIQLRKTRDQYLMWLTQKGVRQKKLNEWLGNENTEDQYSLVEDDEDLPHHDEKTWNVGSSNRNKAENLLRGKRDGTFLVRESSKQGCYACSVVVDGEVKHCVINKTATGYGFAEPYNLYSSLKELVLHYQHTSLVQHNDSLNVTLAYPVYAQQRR
T1 sequence (P48736 whole entry): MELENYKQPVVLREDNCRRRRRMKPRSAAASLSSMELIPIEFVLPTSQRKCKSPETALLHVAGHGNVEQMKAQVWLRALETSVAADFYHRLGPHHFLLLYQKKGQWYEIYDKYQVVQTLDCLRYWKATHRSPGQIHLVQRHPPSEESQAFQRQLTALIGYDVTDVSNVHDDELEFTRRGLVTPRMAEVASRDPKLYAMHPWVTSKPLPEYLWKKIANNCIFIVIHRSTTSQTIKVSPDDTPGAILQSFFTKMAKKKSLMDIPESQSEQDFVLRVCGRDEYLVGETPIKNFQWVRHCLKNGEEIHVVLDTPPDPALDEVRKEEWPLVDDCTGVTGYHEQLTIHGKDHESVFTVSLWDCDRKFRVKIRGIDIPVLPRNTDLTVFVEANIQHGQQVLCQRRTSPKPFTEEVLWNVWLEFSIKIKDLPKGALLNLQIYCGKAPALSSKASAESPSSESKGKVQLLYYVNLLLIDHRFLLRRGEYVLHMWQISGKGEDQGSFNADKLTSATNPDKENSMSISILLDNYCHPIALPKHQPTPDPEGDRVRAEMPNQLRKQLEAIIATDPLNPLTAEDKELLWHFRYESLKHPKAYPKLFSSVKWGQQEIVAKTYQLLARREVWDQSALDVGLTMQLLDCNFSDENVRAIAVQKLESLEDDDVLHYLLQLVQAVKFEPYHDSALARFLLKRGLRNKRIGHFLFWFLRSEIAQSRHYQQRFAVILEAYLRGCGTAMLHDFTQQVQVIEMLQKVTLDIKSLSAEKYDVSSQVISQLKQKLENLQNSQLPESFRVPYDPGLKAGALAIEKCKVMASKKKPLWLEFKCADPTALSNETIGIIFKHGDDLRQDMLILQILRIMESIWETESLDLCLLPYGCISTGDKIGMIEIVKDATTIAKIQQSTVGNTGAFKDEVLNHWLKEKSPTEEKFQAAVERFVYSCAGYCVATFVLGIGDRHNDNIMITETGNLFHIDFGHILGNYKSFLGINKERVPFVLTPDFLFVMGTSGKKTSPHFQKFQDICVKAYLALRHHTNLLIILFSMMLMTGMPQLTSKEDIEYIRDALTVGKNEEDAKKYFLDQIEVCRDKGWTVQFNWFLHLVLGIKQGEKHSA

As usually defined, the inhibition is how much of the control response was suppressed. With `Cc1ccc(C)n1-n1c(Cn2nc(-c3ccc(O)c4c3CC(C)(C)O4)c3c(N)ncnc32)nc2cccc(C#CCN3CCNC(=O)C3)c2c1=O` [compound 68, 2-{[4-amino-3-(7-hydroxy-2,2-dimethyl-2,3-dihydro-1-benzofuran-4-yl)-1H-pyrazolo[3,4-d]pyrimidin-1-yl]methyl}-3-(2,5-dimethyl-1H-pyrrol-1-yl)-5-[3-(3-oxopiperazin-1-yl)prop-1-yn-1-yl]quinazolin-4(3H)-one], the inhibition at 1 µM in assay [1] and in assay [2] was 80 to 100% throughout.

Consider `Cc1cccc2nc(Cn3nc(-c4ccc(O)c5c4CC(C)(C)O5)c4c(N)ncnc43)n(-n3cccn3)c(=O)c12` [compound 7, 2-{[4-amino-3-(7-hydroxy-2,2-dimethyl-2,3-dihydro-1-benzofuran-4-yl)-1H-pyrazolo[3,4-d]pyrimidin-1-yl]methyl}-5-methyl-3-(1H-pyrazol-1-yl)quinazolin-4(3H)-one], for which the inhibition at 1 µM was 60 to 80% in assay [1] and 80 to 100% in assay [2].

For the compound `CC1(C)Cc2c(-c3nn(Cc4nc5cccc(Cl)c5c(=O)n4-n4cccc4)c4ncnc(N)c34)ccc(O)c2O1` [Compound No. 3, 2-{[4-amino-3-(7-hydroxy-2,2-dimethyl-2,3-dihydro-1-benzofuran-4-yl)-1H-pyrazolo[3,4-d]pyrimidin-1-yl]methyl}-5-chloro-3-(1H-pyrrol-1-yl)quinazolin-4(3H)-one], the inhibition at 1 µM in assay [1] and in assay [2] was 80 to 100% in each case.

With `CCCn1cc(-c2cccc3nc(Cn4nc(-c5ccc(O)c6c5CC(C)(C)O6)c5c(N)ncnc54)n(-n4c(C)ccc4C)c(=O)c23)cn1` [compound 89, 2-{[4-amino-3-(7-hydroxy-2,2-dimethyl-2,3-dihydro-1-benzofuran-4-yl)-1H-pyrazolo[3,4-d]pyrimidin-1-yl]methyl}-3-(2,5-dimethyl-1H-pyrrol-1-yl)-5-(1-propyl-1H-pyrazol-4-yl)quinazolin-4(3H)-one], the inhibition at 1 µM in assay [1] and in assay [2] was 80 to 100% throughout.

As for `Cn1nccc1-c1cccc2nc(Cn3nc(-c4ccc(O)c5c4CC(C)(C)O5)c4c(N)ncnc43)n(C3(c4ccccc4)CC3)c(=O)c12` [compound 30, 2-{[4-amino-3-(7-hydroxy-2,2-dimethyl-2,3-dihydro-1-benzofuran-4-yl)-1H-pyrazolo[3,4-d]pyrimidin-1-yl]methyl}-5-(1-methyl-1H-pyrazol-5-yl)-3-(1-phenylcyclopropyl)quinazolin-4(3H)-one], the inhibition at 1 µM was 60 to 80% in assay [1] and 80 to 100% in assay [2].

On to `Cc1ccc(C)n1-n1c(Cn2nc(-c3ccc(O)c4c3CC(C)(C)O4)c3c(N)ncnc32)nc2cccc(C#CC3CC3)c2c1=O` [compound 43, 2-{[4-amino-3-(7-hydroxy-2,2-dimethyl-2,3-dihydro-1-benzofuran-4-yl)-1H-pyrazolo[3,4-d]pyrimidin-1-yl]methyl}-5-(cyclopropylethynyl)-3-(2,5-dimethyl-1H-pyrrol-1-yl)quinazolin-4(3H)-one], for which the inhibition at 1 µM in assay [1] and in assay [2] was 80 to 100% in each case.

As to `Nc1ncnc2c1c(-c1ccc(O)c3c1CCC3)nn2Cc1nc2cccc(Cl)c2c(=O)n1-n1cccc1` [compound 1, 2-{[4-amino-3-(7-hydroxy-2,3-dihydro-1H-inden-4-yl)-1H-pyrazolo[3,4-d]pyrimidin-1-yl]methyl}-5-chloro-3-(1H-pyrrol-1-yl)quinazolin-4(3H)-one], the inhibition at 1 µM in assay [1] and in assay [2] was 80 to 100% throughout.

Regarding `CC1(C)Cc2c(-c3nn(Cc4nc5cccc(-c6cccnc6)c5c(=O)n4-n4cccc4)c4ncnc(N)c34)ccc(O)c2O1` [compound 10, 2-{[4-amino-3-(7-hydroxy-2,2-dimethyl-2,3-dihydro-1-benzofuran-4-yl)-1H-pyrazolo[3,4-d]pyrimidin-1-yl]methyl}-5-(pyridin-3-yl)-3-(1H-pyrrol-1-yl)quinazolin-4(3H)-one], the inhibition at 1 µM in assay [1] was 60 to 80%; in assay [2], 80 to 100%.
